Where two headings read alike, the source gives them in different places.
Legend:
[1] = test system: P. falciparum 3D7 (CQ-susceptible strain); experiment: Antiplasmodial activity, asexual blood stages, HRP2 ELISA-based assay, 3D7 strain; assay type: cell-based, Plasmodium falciparum; conditions: for IC50: CQ-susceptible 3D7 strain, 72 h drug incubation, mean of five to seven experiments, read-out: P. falciparum IC50 (±SEM), 3D7
Text: We determined the half-maximal inhibitory concentration (IC50) of the complexes against asexual blood stages of P. falciparum using CQ-susceptible and CQ-resistant strains (Table 2). […]. Two strains were selected for the tests: the CQ-susceptible 3D7 strain (isolated in West Africa; obtained from MR4, VA, USA), and the CQ-resistant W2 strain (isolated in Indochina; obtained from MR4, VA, USA). Both were maintained in culture in RPMI 1640 (Invitrogen, Paisley, UK), supplemented with 10% human serum (Abcys S.A. Paris, France), and buffered with 25 mM HEPES and 25 mM NaHCO3. Parasites were grown in A-positive human blood (Etablissement Français du Sang, Marseille, France) in controlled atmospheric conditions that consisted of 10% O2, 5% CO2, and 85% N2 at 37 °C with 95% humidity. […]
For in vitro isotopic microtests, 25 μL/well of antimalarial drug and 200 μL/well of parasitized red blood cell suspension (final parasitemia 0.5%, final hematocrit 1.5%) were distributed into 96-well plates. The plates were incubated for 72 h at 37 °C in 85% N2, 10% O2, 5% CO2. After freezing and then thawing, the hemolyzed cultures were homogenized by vortexing the plates. The drug susceptibility assay was performed using the HRP2 ELISA-based assay of the Malaria Ag Celisa kit (ref KM2159, Cellabs PTY LDT, Brookvale, Australia), as described previously.[72] […] […]. IC50 are expressed as means of at least 5 to 7 independent experiments.

[2] = Buffer–n-octanol distribution coefficient (shaking flask method)
Protocol: The distribution coefficient (Log D), a proxy parameter to estimate drug lipophilicity, was assessed for ATV and its metal complexes 1–3.
Buffer–n-octanol distribution coefficients were determined using the shaking flask method.[73] A UV–vis calibration curve was prepared in the 10–100 μM range in n-octanol. […] The concentration of complex in n-octanol was measured spectrophotometrically in order to determine values of D = [compound] (in n-octanol)/[compounds] (in buffer).[66],[67]

[3] = Interaction with ferriprotoporphyrin IX, spectroscopic titration of Soret band at 402 nm; assay type: binding; conditions: for log K (association constant of drug binding to hemin): pH 7.4, 40% aqueous DMSO, 1:1 complexation model, mean and SEM of three experiments; for hypochromic effect on the Soret band of hemin: until saturation point, 402 nm
Protocol: The association constants (Log K) of the compounds with hemin were determined at pH 7.4 using a 1:1 complexation model with the equation proposed by Egan et al.[52] for the nonlinear least-squares fitting (Figure 2, Table 2).
Following a procedure described in the literature,[52] the association constant (Log K) of the drugs with ferriprotoporphyrin IX was determined in 40% aqueous DMSO. A stock solution of hemin chloride was prepared by adding 3.5 mg hemin to 10 mL DMSO and adjusted to pH 7.5. A working solution of hemin in 40% DMSO was further prepared by mixing 140 μL hemin stock solution, 5 mL distilled water, 3.86 mL DMSO, and 1 mL 0.2 M Tris (tris(hydroxymethyl)aminomethane) buffer. Aliquots of compounds were added to this working hemin solution. Blank solutions containing only hemin or compounds were prepared to subtract the absorbance of the compounds. […] Binding affinity was determined using the equation A = (A0 + A∞K[C])/(1 + K[C]) for a 1:1 complexation model using nonlinear least-squares fitting, where A0 is the absorbance of Fe(III)PPIX, A∞ is the absorbance of the compound–hemin adduct at saturation, and K is the association constant. Three independent experiments were performed.

[4] = Chemical stability in solution (UV–vis, NMR, molar conductivity); assay type: physicochemical; conditions: for ΛM (DMSO) Day 1 / ΛM (DMSO) Day 2 / ΛM (DMSO) Day 3 / ΛM (DMSO) Day 7 / ΛM (DMSO) Day 15: molar conductivity in DMSO, stability; for stability by UV–vis in pure DMSO: primarily within 0–24 h
Protocol: Three distinct methodologies were used to investigate the in-solution stability of metal–ATV complexes 1–3, namely ultraviolet–visible (UV–vis) spectra, NMR, and molar conductivity. All experiments were performed in dimethyl sulfoxide (DMSO) and monitored for at least 72 h, a time frame which coincides with antimalarial drug treatment.
Furthermore, no significant changes in the ^1H NMR and ^31P{^1H} NMR spectra of the complexes were observed up to 72 h in comparison to freshly dissolved solution, denoted as time 0 h (Figures S20–S25). However, for the ^31P{^1H} NMR spectrum of the complex 3, it is observed an increasing intensity of the singlet at 28 ppm that can be attributed to oxidized PPh3, which may be leaving the coordination sphere, but this is relative low when compared with the signal of the complex at −1.76 ppm. Both molar conductivity and NMR data therefore indicate that the metal complexes remained intact in this condition. The observed […] in DMSO is likely related to the fact that the metal atoms are bonded to phosphine ligands, hindering any oxidation of the metal center.
As for the UV–vis analyses, these were used to assess the stability of metal–ATV complexes 1–3 in a solution of pure DMSO or DMSO mixed with aqueous media. To this end, three different conditions were employed in parallel experiments. […] The small change in absorbance observed can be attributed to dynamic equilibrium processes or structural reorganization of the metal complexes. These processes may include partial dissociation of ligands, reorientation of solvent molecules around the metal ion, or even conformational changes of the metal complexes. […] Highlighting that these conditions are the most similar to those employed in the determination of biological activity. Based on this, we concluded that in mixed aqueous/organic media, ATV and complexes 1–3 may undergo slight structural modifications, but no significant ligand exchange reactions occur, as previously observed in the stability studies by NMR.
For the stability studies by NMR spectroscopy, fresh solutions of the complexes in DMSO-d6 with concentrations of 22–25 mM were used. In the studies by UV–vis spectroscopy, three experimental conditions were employed: a) only DMSO, b) 90% DMSO/10% H2O, and c) 90% DMSO/10% RPMI 1640 (Roswell Park Memorial Institute) medium, with concentrations of the complexes 1-3 in 0.28–0.35 μM, 0.25–0.28 μM and 0.32–0.38 μM, respectively. Fresh solutions of the complexes dissolved in DMSO were always used and subsequently diluted with water or RPMI medium.

[5] = test system: HepG2 cells; experiment: Cytotoxicity in mammalian cells (CellTiter-Glo), HepG2; assay type: cell-based; conditions: HepG2 human hepatocellular carcinoma line; 72 h drug incubation; mean of three experiments; read-out: mammalian cells CC50 (±SEM), HepG2
Protocol: Cell lines J774 and HepG2 were incubated with the drug for 72 h, the same time frame as employed to determine antimalarial activity. Cytotoxicity was evaluated in parallel with ATV as a representative parental drug, while doxorubicin was used as a standard cytotoxic drug. These experiments were also used to estimate the in vitro selectivity index (Table 2).
Doxorubicin chloridrate (Eurofarma, São Paulo, Brazil) was used as a positive control, while untreated cells were employed as negative controls. Bioluminescence readings were performed using a Filtermax F5Multi-Mode instrument (Molecular Devices, Sunnyvale, CA) using the CellTiter-Glo kit (Promega Corporation, Madison, USA). Three independent experiments were performed and CC50 values were calculated.

Compound	Selectivity index (S.I.) ([1]; CC50 (J774)/IC50(3D7))	IC50 ([1]; Plasmodium falciparum)	logD at 18 h ([2]; pH 5)	logD at 18 h ([2]; pH 7)	log K (association constant of drug binding to hemin) [3]	hypochromic effect on the Soret band of hemin [3]	ΛM (DMSO) Day 1 [4]	ΛM (DMSO) Day 2 [4]	ΛM (DMSO) Day 3 [4]	ΛM (DMSO) Day 7 [4]	ΛM (DMSO) Day 15 [4]	CC50 [5]	IC50 [1]	log D pH 5 ([2]; pH 5)	log D pH 7 ([2]; pH 7)	stability by UV–vis in 90% DMSO mixed with 10% water ([4]; 90% DMSO/10% H2O)	stability by UV–vis in pure DMSO [4]
O=C1C(O)=C([C@H]2CC[C@H](c3ccc(Cl)cc3)CC2)C(=O)c2ccccc21 [ATV, atovaquone]	8250	2.4 ± 1.2 nM	-1.17	-1.15	3.64 ± 0.10	42%	0.93 Ohm-1cm2mol-1	1.07 Ohm-1cm2mol-1	1.23 Ohm-1cm2mol-1	1.68 Ohm-1cm2mol-1	2.04 Ohm-1cm2mol-1	–	–	–	–	–	–
O=C1C([O][Cu]([PH](c2ccccc2)(c2ccccc2)c2ccccc2)[PH](c2ccccc2)(c2ccccc2)c2ccccc2)=C([C@H]2CC[C@H](c3ccc(Cl)cc3)CC2)C(=O)c2ccccc21 [Complex 3, [Cu(ATV)(PPh3)2]]	–	–	–	–	3.97 ± 0.01	38%	3.71 Ohm-1cm2mol-1	3.80 Ohm-1cm2mol-1	3.47 Ohm-1cm2mol-1	3.14 Ohm-1cm2mol-1	3.05 Ohm-1cm2mol-1	44300 ± 7700 nM	30.7 ± 10.7 nM	–5.18	1.06	major change in the spectra	modifications were observed in the electronic spectra
[Ag(ATV)(PPh3)2] [Complex 1]	–	–	–	–	4.33 ± 0.05	37%	12.81 Ohm-1cm2mol-1	13.90 Ohm-1cm2mol-1	16.14 Ohm-1cm2mol-1	13.70 Ohm-1cm2mol-1	12.17 Ohm-1cm2mol-1	14600 ± 900 nM	30.5 ± 9.7 nM	–2.12	0.08	–	–
[Au(ATV)(PPh3)]·2H2O [Complex 2]	–	–	–	–	4.46 ± 0.01	51%	12.69 Ohm-1cm2mol-1	14.51 Ohm-1cm2mol-1	12.53 Ohm-1cm2mol-1	12.41 Ohm-1cm2mol-1	11.84 Ohm-1cm2mol-1	8900 ± 2700 nM	8.1 ± 2.7 nM	–1.87	–1.71	–	modifications were observed in the electronic spectra
